Here are results for 16 compounds from US5399577A, “Isoxazole derivatives and salts thereof” (Taiho Pharmaceutical Co., Ltd., priority 1991, dated 1995).

SMILES strings stand for the structures. Bounds are passed on as bounds.

One experiment has as its target cyclooxygenase. Briefly: Cyclooxygenase inhibiting effect. The class given is biochemical. As to conditions: seminal vasicular gland microsomes, 14C-arachidonic acid, prostaglandin E2 formation. As for the experimental part:
(1) Cyclooxygenase inhibiting effect
This assay was carried out by the method described in Russell J. Taylor et al., Biochem. Pharmacol., 25, 2479-2484 (1976).
^14 C-arachidonic acid was reacted with seminal vasicular gland microsomes and the test drugs at various concentrations over a predetermined period of time and the obtained prostaglandin E2 was separated by thin layer chromatography. The radioactivity of prostaglandin E2 was determined by liquid scintillation counter. The IC50 values were calculated by the comparison with the radioactivity of the control.

In a further experiment the target is T1, 5-Lipoxygenase (Cavia porcellus, UniProt A0A286X958).
T1 construct: the polymorphonuclear leucocytes were collected and the cytosol fraction was obtained as an enzyme source; endogenous in cells; host or cells: guinea pig peritoneal polymorphonuclear leucocytes, cytosol fraction
T1 sequence (A0A286X958 1-674): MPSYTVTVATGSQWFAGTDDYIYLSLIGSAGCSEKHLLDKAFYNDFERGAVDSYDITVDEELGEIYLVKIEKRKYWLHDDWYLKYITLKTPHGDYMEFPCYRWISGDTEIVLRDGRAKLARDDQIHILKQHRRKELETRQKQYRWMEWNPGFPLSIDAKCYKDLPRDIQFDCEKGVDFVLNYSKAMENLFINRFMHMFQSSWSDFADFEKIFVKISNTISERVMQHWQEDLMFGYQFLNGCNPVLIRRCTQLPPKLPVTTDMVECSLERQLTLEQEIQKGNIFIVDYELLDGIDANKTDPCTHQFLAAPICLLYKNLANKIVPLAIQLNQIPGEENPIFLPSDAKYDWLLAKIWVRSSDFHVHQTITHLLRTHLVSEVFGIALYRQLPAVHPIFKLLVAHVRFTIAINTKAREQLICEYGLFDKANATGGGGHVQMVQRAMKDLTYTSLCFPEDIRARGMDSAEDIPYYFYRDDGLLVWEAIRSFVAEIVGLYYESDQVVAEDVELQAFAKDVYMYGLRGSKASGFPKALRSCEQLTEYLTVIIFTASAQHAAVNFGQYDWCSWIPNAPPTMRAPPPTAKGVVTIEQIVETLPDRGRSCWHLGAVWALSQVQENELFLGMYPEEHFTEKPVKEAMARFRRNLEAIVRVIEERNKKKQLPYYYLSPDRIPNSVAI
Briefly: 5-Lipoxygenase inhibiting activity. As to conditions: cytosol fraction of guinea pig polymorphonuclear leucocytes, 14C-arachidonic acid, 5-hydroxyeicosatetraenoic acid formation. The class given is biochemical. As for the experimental part:
(2) 5-Lipoxygenase inhibiting activity
This assay was carried out by the method described in Kenkichi Ochi et al., J. Biol. Chem., 258, 5754-5758 (1983).
Casein was injected into the abdominal cavity of a guinea pig, and the polymorphonuclear leucocytes were collected and the cytosol fraction was obtained as an enzyme source. ^14 C-arachidonic acid was reacted with the enzyme and the test drug at various concentrations over a predetermined period of time. The obtained 5-hydroxyeicosatetraenoic acid was separated by thin layer chromatography and the radioactivity was determined. The IC^50 values were calculated by the comparison with the radioactivity of the control.

For `COc1ccc(-c2noc(CCNC(=O)/C=C/C=C/c3ccc(O)c(OC)c3)c2-c2ccc(OC)cc2)cc1` [Compound 12], the figures for the IC50 against cyclooxygenase and against 5-Lipoxygenase were 15 nM and 240 nM, respectively.

Take `COc1ccc(-c2noc(CCCC(=O)/C=C/c3cc(C)c(O)c(C)c3)c2-c2ccc(OC)cc2)cc1` [Compound 40]: the IC50 (as a rule, the midpoint of a concentration-inhibition curve) stood at 240 nM against cyclooxygenase and 3030 nM at 5-Lipoxygenase.

Take `COc1ccc(-c2noc(CNC(=O)/C=C/C=C/c3cc(OC)c(O)c(OC)c3)c2-c2ccc(OC)cc2)cc1` [Compound 16]: the IC50 turned out to be 290 nM on cyclooxygenase and 230 nM on 5-Lipoxygenase.

With `COc1ccc(-c2noc(CNC(=O)/C=C/C=C/c3ccc(O)c(OC)c3)c2-c2ccc(OC)cc2)cc1` [Compound 15], the IC50 against cyclooxygenase was found to be 50 nM; against 5-Lipoxygenase it was 110 nM.

On to `COc1ccc(-c2noc(CCNC(=O)/C=C/C=C/c3cc(OC)c(O)c(OC)c3)c2-c2ccc(OC)cc2)cc1` [Compound 13], for which the results for the IC50 against cyclooxygenase and against 5-Lipoxygenase were 10 nM and 50 nM, respectively.

For the compound `COc1ccc(-c2noc(CCNC(=O)/C=C/c3ccc(O)c(O)c3)c2-c2ccc(OC)cc2)cc1` [Compound 5], the IC50 against cyclooxygenase came to 100 nM; at 5-Lipoxygenase, 113 nM.

With `Cc1ccc(-c2noc(CCNC(=O)/C=C/c3ccc(O)c(O)c3)c2-c2ccc(C)cc2)cc1` [Compound 7], the figures for the IC50 against cyclooxygenase and against 5-Lipoxygenase were 2600 nM and 110 nM, respectively.

For the compound `COc1ccc(-c2noc(CCCC(=O)/C=C/c3ccc(O)c(O)c3)c2-c2ccc(OC)cc2)cc1` [Compound 38], the figures for the IC50 against cyclooxygenase and at 5-Lipoxygenase were 140 nM and 55 nM, respectively.

In the case of `COc1ccc(-c2noc(CCCC(=O)/C=C/c3cc(OC)c(O)c(OC)c3)c2-c2ccc(OC)cc2)cc1` [Compound 39], the IC50 was 1310 nM against cyclooxygenase and 180 nM at 5-Lipoxygenase.

As for `O=C(/C=C/c1ccc(O)c(O)c1)NCCc1onc(-c2ccccc2)c1-c1ccccc1` [Compound 6], the IC50 at cyclooxygenase was found to be 2600 nM; at 5-Lipoxygenase, 100 nM.

As for `COc1ccc(-c2c(-c3ccc(Cl)cc3)noc2CCNC(=O)/C=C/c2ccc(O)c(O)c2)cc1` [Compound 8], the IC50 came out at 1500 nM against cyclooxygenase and 86 nM at 5-Lipoxygenase.

On to `COc1ccc(-c2noc(CCNC(=S)/C=C/c3ccc(O)c(OC)c3)c2-c2ccc(OC)cc2)cc1` [Compound 48], for which the figures for the IC50 against cyclooxygenase and against 5-Lipoxygenase were 30 nM and 630 nM, respectively.

Take `COc1ccc(-c2noc(CCOC(=O)/C=C/c3ccc(O)c(O)c3)c2-c2ccc(OC)cc2)cc1` [Compound 4]: the IC50 against cyclooxygenase was found to be 66 nM; against 5-Lipoxygenase, 62 nM.

For the compound `COc1ccc(-c2noc(C(=O)/C=C/C=C/c3ccc(O)c(OC)c3)c2-c2ccc(OC)cc2)cc1` [Compound 46], the figures for the IC50 at cyclooxygenase and on 5-Lipoxygenase were 280 nM and 390 nM, respectively.

Take `COc1ccc(-c2noc(CCNC(=O)/C=C/C=C/c3c(OC)cc(O)cc3OC)c2-c2ccc(OC)cc2)cc1` [Compound 14]: the figures for the IC50 at cyclooxygenase and against 5-Lipoxygenase were less than 10 nM and 130 nM, respectively.

With `COc1ccc(-c2noc(CCNC(=O)/C=C/c3cc(OC)c(O)c(OC)c3)c2-c2ccc(OC)cc2)cc1` [Compound 10], the values for the IC50 against cyclooxygenase and against 5-Lipoxygenase were 100 nM and 670 nM, respectively.
